Tests used:
[1] = tested on: Beet Armyworm (Spodoptera exigua); assay: Bioassay on Beet Armyworm (BAW), 128-well diet tray assay; format: in vivo; conditions: percent mortality of second instar larvae, 50 μg/cm^2 on artificial diet, five to seven days, 25° C., Table 3; for pest or weed control at 50 µg/cm2, 50 µg/cm2: Spodoptera exigua, 168 h, read-out: BAW Rating
Method in brief: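 Second-instar larvae (one to five per well) were placed on artificial diet surface-treated with 50 μg/cm^2 compound in acetone-water and held at 25 °C, 14:10 light-dark, for five to seven days. Percent mortality was averaged over eight wells.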

[2] = tested on: Corn Earworm (Helicoverpa zea); assay: Bioassay on Corn Earworm (CEW), 128-well diet tray assay; format: in vivo; conditions: Helicoverpa zea, 168 h; percent mortality of second instar larvae, 50 μg/cm^2 on artificial diet, five to seven days, 25° C.; Table 3; read-out: CEW Rating
Procedure: Certain molecules disclosed in this document were tested against BAW and CEW and CL using procedures described in the following examples. In the reporting of the results, the “BAW & CEW & CL Rating Table” was used (See Table Section).
Bioassays On CEW (Helicoverpa zea)
Bioassays on CEW were conducted using a 128-well diet tray assay. one to five second instar CEW larvae were placed in each well (3 mL) of the diet tray that had been previously filled with 1 mL of artificial diet to which 50 μg/cm^2 of the test compound (dissolved in 50 μL of 90:10 acetone-water mixture) had been applied (to each of eight wells) and then allowed to dry. Trays were covered with a clear self-adhesive cover, and held at 25° C., 14:10 light-dark for five to seven days. Percent mortality was recorded for the larvae in each well; activity in the eight wells was then averaged. The results are indicated in the table entitled “Table 3: Assay Results” (See Table Section).

FC(F)(F)C(/C=C/c1ccc(-n2cncn2)cc1)c1cc(Cl)c(Cl)c(Cl)c1 (stereo not shown) [DC18]
pest or weed control at 50 µg/cm2, 50 µg/cm2 [1]: 50 to 100% | pest or weed control at 50 µg/cm2 [2]: 50 to 100%

FC(F)(F)c1cc(Cl)cc(C(/C=C/c2ccc(-n3cncn3)cc2)C(F)(F)F)c1 (stereo not shown) [DC19]
pest or weed control at 50 µg/cm2, 50 µg/cm2 [1]: 50 to 100% | pest or weed control at 50 µg/cm2 [2]: 50 to 100%

N#Cc1cc(/C=C/C(c2cc(Cl)cc(Cl)c2)C(F)(F)F)ccc1-n1cncn1 (stereo not shown) [DC29]
pest or weed control at 50 µg/cm2, 50 µg/cm2 [1]: 50 to 100% | pest or weed control at 50 µg/cm2 [2]: 50 to 100%

N#Cc1cc(/C=C/C(c2cc(C(F)(F)F)cc(C(F)(F)F)c2)C(F)(F)F)ccc1-n1cncn1 (stereo not shown) [DC30]
pest or weed control at 50 µg/cm2, 50 µg/cm2 [1]: 50 to 100% | pest or weed control at 50 µg/cm2 [2]: 50 to 100%

N#Cc1cc(/C=C/C(c2cc(Cl)c(Cl)c(Cl)c2)C(F)(F)F)ccc1-n1cnc(NC(=O)C2CC2)n1 (stereo not shown) [DC43, (E)-N-(1-(2-Cyano-4-(4,4,4-trifluoro-3-(3,4,5-trichlorophenyl)but-1-en-1-yl)phenyl)-1H-1,2,4-triazol-3-yl)cyclopropanecarboxamide]
BAW Rating [1]: A (50-100)

Cc1cc(/C=C/C(c2cc(Cl)cc(Cl)c2)C(F)(F)F)cc(C#N)c1-n1cncn1 (stereo not shown) [DC44]
BAW Rating [1]: A (50-100)

Cc1cc(/C=C/C(c2cc(Cl)c(Cl)c(Cl)c2)C(F)(F)F)cc(C#N)c1-n1cncn1 (stereo not shown) [DC45]
BAW Rating [1]: A (50-100)

N#Cc1cc(/C=C\C(c2cc(Cl)c(F)c(Cl)c2)C(F)(F)F)ccc1-n1cncn1 (stereo not shown) [DC46]
BAW Rating [1]: A (50-100)

FC(F)(F)C(/C=C/c1ccc(-n2cncn2)c(Br)c1)c1cc(Cl)cc(Cl)c1 (stereo not shown) [DC47]
BAW Rating [1]: A (50-100)

Fc1cc(/C=C/C(c2cc(Cl)cc(Cl)c2)C(F)(F)F)ccc1-n1cncn1 (stereo not shown) [DC48]
BAW Rating [1]: A (50-100)

FC(F)(F)C(/C=C/c1ccc(-n2cncn2)c(Cl)c1)c1cc(Cl)c(Cl)c(Cl)c1 (stereo not shown) [DC49]
BAW Rating [1]: A (50-100)

FC(F)(F)C(/C=C/c1ccc(-n2cncn2)c(Cl)c1)c1cc(Cl)cc(Cl)c1 (stereo not shown) [DC50]
BAW Rating [1]: A (50-100)

FC(F)(F)c1cc(/C=C/C(c2cc(Cl)cc(Cl)c2)C(F)(F)F)ccc1-n1cncn1 (stereo not shown) [DC51]
BAW Rating [1]: A (50-100)

CNc1cc(/C=C/C(c2cc(Cl)cc(Cl)c2)C(F)(F)F)ccc1-n1cncn1 (stereo not shown) [DC57, (E)-5-(3-(3,5-Dichlorophenyl)-4,4,4-trifluorobut-1-en-1-yl)-N-methyl-2-(1H-1,2,4-triazol-1-yl)aniline]
BAW Rating [1]: A (50-100)

CCOC(=O)c1cc(/C=C/C(c2cc(Cl)cc(Cl)c2)C(F)(F)F)ccc1-n1cncn1 (stereo not shown) [DC60]
BAW Rating [1]: A (50-100)

Cc1cc(/C=C/C(c2cc(Cl)cc(Cl)c2)C(F)(F)F)ccc1-n1cncn1 (stereo not shown) [DC62]
BAW Rating [1]: A (50-100)

Cc1cc(/C=C/C(c2cc(Cl)c(Cl)c(Cl)c2)C(F)(F)F)ccc1-n1cncn1 (stereo not shown) [DC63]
BAW Rating [1]: A (50-100)

FC(F)(F)C(/C=C/c1ccc(-n2cncn2)cc1Cl)c1cc(Cl)c(Cl)c(Cl)c1 (stereo not shown) [DC66]
BAW Rating [1]: A (50-100)

FC(F)(F)C(/C=C/c1ccc(-n2cncn2)cc1Cl)c1cc(Cl)cc(Cl)c1 (stereo not shown) [DC67]
BAW Rating [1]: A (50-100)

C/C(=C\C(c1cc(Cl)cc(Cl)c1)C(F)(F)F)c1ccc(-n2cncn2)cc1 (stereo not shown) [DC68, (E)-1-(4-(4-(3,5-Dichlorophenyl)-5,5,5-trifluoropent-2-en-2-yl)phenyl)-1H-1,2,4-triazole]
BAW Rating [1]: A (50-100)

COC(/C=C/c1ccc(-n2cncn2)cc1)(c1cc(Cl)cc(Cl)c1)C(F)(F)F (stereo not shown) [DC70, (E)-1-(4-(3-(3,5-Dichlorophenyl)-4,4,4-trifluoro-3-methoxybut-1-en-1-yl)phenyl)-1H-1,2,4-triazole]
BAW Rating [1]: A (50-100)

Source: US9510592B2, “Pesticidal compositions and processes related thereto” (Dow AgroSciences LLC, priority 2012, dated 2016)
